# Test results taken from US9927437B2, “Treating neurodegenerative disease” (THE BRIGHAM AND WOMEN'S HOSPITAL, INC., priority 2013, dated 2018).
# Entries after “also recorded” stand apart in the source; their conditions may differ.
# Columns and labels:
# C8-D30 astrocytes = assay: In vitro knock-down with shRNA in C8-D30 astrocytes, LPS/IFNγ activation; type: cell-based, mouse; conditions: lentivirus-delivered shRNA
# inflammatory monocytes = assay: Recruitment of inflammatory monocytes to the CNS of EAE NOD mice (flow cytometry); type: in vivo, mouse; conditions: PDMP as in FIG. 1k, CD11b+Ly6C^high or CD11b+CD45^high
# human primary astrocytes = assay: Activation of human primary astrocytes with IL-1β or poly(I:C), qPCR; type: cell-based; conditions: PDMP 25 μM; IL-1β 10 ng/ml or Poly (I:C) 10 μg/ml, 6 h
# Description: FIG. 6a-d. […] Autopsy samples were obtained from lesions (n=10) or NAWM (n=5) from MS, non-MS CNS inflammatory diseases (NMSCID, including viral encephalitis, Rasmussen's encephalitis and ADEM, n=5) patients and healthy controls (n=6). (a) qPCR analysis of B4GALT5 and B4GALT6 mRNA expression in CNS samples relative to ACTB. (b) IF analysis of B4GALT6, CCL2 and iNOS in GFAP+ astrocytes in NAWM and Lesion of MS patients. (c) LacCer levels determined in CNS samples, relative to protein content. Statistical analysis by one-way ANOVA, followed by Tukey post-hoc analysis. (d) Primary human astrocytes were pre-treated with PDMP (25 μM) or vehicle, and activated with IL-1β (10 ng/ml) or Poly (I:C) (10 μg/ml) or left untreated (control). RNA was harvested 6 h later and the expression of CCL2, CCL5, COX2, IL6, NOS2, and TLR2 was analyzed by qPCR relative to ACTB in 3 independent experiments. Statistical analysis by Student's t-test. Data presented are mean and s.e.m. *P<0.05, **P<0.01 and ***P<0.001.
# Human fetal astrocytes were isolated as previously described^57 from human CNS tissue from fetuses at 17-23 wk of gestation obtained from the Human Fetal Tissue Repository (Albert Einstein College of Medicine, Bronx, N.Y.) following Canadian Institutes for Health Research-approved guidelines. Cultures were >90% pure.
# C57BL/6 mice = assay: EAE in C57BL/6 mice; type: in vivo; conditions: 10 μg per mouse with MOG35-55 at induction and i.p. every 3 days
# choroid plexus cells = assay: Transcriptional response of choroid plexus cells to LPS/IFNγ; type: cell-based, mouse; conditions: LacCer 10 μM 1 h, LPS/IFNγ 6 h
# Procedure: (§1) FIGS. 15a-b. […] Leptomeningeal phagocytes (a) and choroid plexus cells (b) were pre-treated for 1 h with LacCer (10 μM), or vehicle control (vehicle), followed by activation with LPS/IFNγ for 6 h, or left un-treated (control, Con). mRNA expression was determined by nCounter Nanostring analysis. Representative data of two independent experiments.
# Mouse primary choroid plexus cells were prepared as described^55,56 with minor modifications. In brief, the choroid plexus was removed from 1- to 3-day-old neonatal mice, digested with 1% collagenase for 20 min at 37° C., and then dispersed into a single-cell level. The cell suspension was washed in culture medium for choroid plexus cells [Dulbecco's modified Eagle medium/Ham's F12 (Invitrogen) supplemented with 10% foetal calf serum (Sigma-Aldrich), 1 mM 1-glutamine, 1 mM sodium pyruvate, 100 U/ml penicillin, […] streptomycin, […] insulin, […] Ara-C) and cultured (2.5×10^5 cells/well) at 37° C., 5% CO2 in poly-D-lysine coated 24-well plates. After 24 h, the medium was changed, and the cells were either left untreated or treated as described.
# [1] = tested on: leptomeningeal phagocytes; assay: Transcriptional response of leptomeningeal phagocytes to LPS/IFNγ; type: cell-based, mouse; conditions: LacCer 10 μM 1 h, LPS/IFNγ 6 h
# Procedure: as §1
# The meninges were carefully stripped from the brains of 1- to 3-day-old neonatal mice, and digested with 1% collagenase for 20 min at 37° C., and then dispersed into a single-cell level. Isolated cells, were incubated with anti-mouse CD16/CD32 for 15 min on ice to block the Fc receptors, and stained with APC-conjugated antibody for CD11b (M1/70) for 30 min at 4° C. Cells were washed, incubated with 7-AAD for exclusion of dead cells, and sorted.
# [2] = tested on: Naïve C57BL/6 and NOD mice; assay: LacCer administration to naïve mice without MOG immunization; type: in vivo; conditions: 10 μg per mouse, absence of MOG immunization
# Procedure: FIGS. 12a-i. […] (a) Naïve C57BL/6 (Left panel) and NOD (right panel) mice were treated with LacCer (10 μg per mouse) or vehicle as indicated by red arrows, and EAE clinical scores was recorded. At experimental end point (day 25), astrocytes were isolated and their transcriptional profile was determined by nCounter Nanostring analysis. (b-e) EAE was induced in C57BL/6 (b, c) or NOD mice (d, e) and LacCer or vehicle were administrated as in FIGS. 1g and 1h, respectively. Splenic T-cell recall response to MOG(35-55) (20 μg/ml); proliferation (b, d) and secretion of IL-17A, IFN-γ and IL-10 cytokines (c, e). Data are representative of two independent experiments with ≥8 mice/group (mean and s.e.m.). (f-i) EAE NOD mice were treated with PDMP or vehicle during the chronic phase as in FIG. 1K. Data are representative of three independent experiments with n≥8 mice/group (mean and s.e.m.). (f) qPCR analysis of the expression of tbx21, ifng, rorc, il17A, csf2, il10, foxp3, and tgfb1 mRNA of CD3^+CD4^+ T-cells isolated from the CNS; expression is presented relative to gapdh. (g, h) Recall response to MOG(35-55) (20 μg/ml); proliferation (g) and secretion of IL-17A, IFN-γ and IL-10 cytokines (h). (i) Expression of IFN-γ, IL-17A, Foxp3 and IL-10 by splenic CD3^+CD4^+ T cells (mean and s.e.m.).
compound,measurement,setting,value
shB4galt6: lentivirus-delivered shRNA against b4galt6 (TRCN0000334278; SEQ ID NO:3) (guide CGATGGACTGAACAATTTATTCTCGAGAATAAATTGTTCAGTCCACG),"up-regulation of h2-Aa, ccl5 and cxcl10 expression",C8-D30 astrocytes,significantly suppressed the up-regulation
"CCCCCCCCCC(=O)N[C@H](CN1CCOCC1)[C@H](O)c1ccccc1 [PDMP, D-threo-1-phenyl-2-decanoylamino-3-morpholino-1-propanol]",frequency of inflammatory monocytes recruited to the CNS,inflammatory monocytes,significantly reduced
same,total numbers of inflammatory monocytes recruited to the CNS,inflammatory monocytes,significantly reduced
same,"CCL2, CCL5, COX2, IL6, NOS2 and TLR2 expression",human primary astrocytes,significant decrease
lactosylceramide [LacCer],EAE clinical scores,C57BL/6 mice,significant worsening of EAE
same,transcriptional response to activation of choroid plexus cells,choroid plexus cells,did not affect the transcriptional response; also recorded: does not affect the transcriptional response
same,transcriptional response to activation of leptomeningeal phagocytes,[1],did not affect the transcriptional response; also recorded: does not affect the transcriptional response
same,induction of EAE-like disease,[2],did not result in the induction of EAE-like disease
